From patent publication US8461305B2, “L-fucose α1→6 specific lectin” (J-Oil Mills, Inc., priority 2008, dated 2013)

How the values were obtained:
[1] = frontal affinity chromatography (FAC), association constant to PA sugar chains having α1→6 L-fucose; assay type: binding; conditions: 25 degrees C.
Experimental: The following section will describe a method of calculating an association constant by frontal affinity chromatography (FAC). This method is based on the following principle. […] Then, the elution front end (front) is observed immediately. When there is an affinity with lectin, the elution of the sugar chain is delayed.
The preparation of a lectin column used in the apparatus is performed in the method as described below. 1. Purified lectin is dissolved in 0.1 to 0.2M of NaHCO3 buffer solution (pH 8.3 to 8.5). 2. The lectin is immobilized, via a lectin primary amino group, a carrier such as NHS activated sepharose. 3. Then, the lectin is blocked by Tris buffer solution including primary amine or ethanolamine for example. 4. Lectin-sepharose is suspended in 10 mM Tris buffer, including 0.8% of NaCl (pH 7.4, TBS). Then, lectin immobilized resin is filled in a miniature column (φ2 mm×10 mm, 31.4 μl). 5. The miniature column in which the lectin immobilized resin is filled is protected by a holder and the lectin column is connected to an FAC automatic analysis apparatus (FAC-1, SHIMADZU CORPORATION).
Then, the elution of the PA sugar chain from the column is detected by a fluorescence detector (excitation wavelength/fluorescence wavelength: 310 nm/380 nm).
Based on the detection data, by using the elution front end (Vo) of the sugar chain (PA rhamnose) not interacting with lectin as a reference, the delay (V−Vo) of the elution front end (V) of a sugar chain interacting with lectin is calculated as an interaction strength. Then, based on the following FAC criteria expressions, the association constant (Ka) between the sugar chain and lectin is calculated based on V−Vo and Bt. If the interaction strength (V−Vo value) and the association constant are higher, a higher affinity is caused between lectin and an L-fucose α1→6 sugar chain.
[In the formula, A means substance used for the elution, Ao means the initial concentration of the substance A, B means a immobilized ligand, V means the elution volume, Vo means the elution front end volume of the substance not interacting with the immobilized ligand B at all, Bt means an effective ligand amount, Kd means a dissociation constant (an inverse of the association constant)].
Pyridylaminated (PA) sugar chains shown in FIG. 1 and FIG. 2 were used to frontal affinity chromatography (FAC) analysis. PA sugars were purchased from TAKARA BIO INC., SEIKAGAKU BIOBUSINESS CORPORATION, and Masuda Chemical Industries co., LTD. PA sugar were also obtained by pyridylaminating, by GlycoTAG®(TAKARA BIO INC.), an unlabeled sugar chain or a sugar chain obtained by subjecting a sugar chain to enzyme digestion for example.
Lectin was dissolved in 0.2 M NaHCO3 buffer solution (pH 8.3) including 0.5 M NaCl and coupled to the NHS-activated sepharose (GE Healthcare Bioscience) by following the manufacturer's instructions. Then, lectin immobilized sepharose was suspended in 10 mM Tris buffer (pH 7.4, TBS) including […] and the resultant matter was filled in a miniature column (φ2 mm×10 mm, 31.4 μl).
Frontal affinity chromatography was performed using FAC automatic analysis apparatus (FAC-1, SHIMADZU CORPORATION). In particular, the above-prepared lectin column was inserted to a stainless steel holder and the holder was connected to FAC-1 apparatus. The flow rate and the column temperature were maintained at 0.125 ml/min and 25 degrees C., respectively. After the miniature column was equilibrated by the TBS, an excessive volume (0.5 ml to 4 ml) of a PA sugar chain (3.75 nM or 7.5 nM) was continuously inputted to the column using an automatic sampling apparatus.
The fluorescent strength of the eluate of the PA sugar (excitation wavelength of 310 nm and fluorescence wavelength of 380 nm) was monitored to measure the interaction strength [a difference of the front end eluate to the standard oligosaccharide (PA rhamnose): V−V0]. […]

glycoproteins = assay: hemagglutinating inhibition test with glycoproteins (sugar binding specificity); assay type: cell-based
Source text: The sugar binding specificity of lectin also can be confirmed by using erythrocytes that can be specifically agglutinated by the lectin to investigate the sugar type that may inhibit the agglutination of the erythrocytes and the concentration thereof.
Various monosaccharides, oligosaccharides, and polysaccharides shown in Table 2 and glycoproteins shown in Table 3 were subjected to hemagglutinating inhibition test to evaluate PTL of Example 1 and the SRL of Example 2 with regard to the sugar binding specificity.
On a 96 well U-bottom microtiter plate, double dilution series of 10 μl of monosaccharide, oligosaccharide, polysaccharide, and glycoprotein solutions were prepared. Then, lectin solution adjusted in advance to have titer 4 was added in an amount of 10 μl to the respective wells. Then, the plate was subjected to a still-standing at a room temperature for one hour for sensitization. Then, 10 μl of 4%-red blood cell suspension was added to the respective wells and the plate was further subjected to a still-standing at a room temperature for one hour. […] The lowest concentration showing the inhibition was assumed as the minimum inhibition concentration. The lower the minimum inhibition concentration is, the higher the specificity to lectin is.
For comparison, the sugar binding specificity was evaluated using the following commercially-available lectins: Comparison Example 1: AAL (SEIKAGAKU BIOBUSINESS CORPORATION—J-OIL MILLS, Inc.), Comparison Example 2: AOL (TOKYO CHEMICAL INDUSTRY CO., LTD.—Gekkeikan Sake Company, Ltd.), Comparison Example 3: LCA (SEIKAGAKU BIOBUSINESS CORPORATION—J-OIL MILLS, Inc.), and Comparison Example 4: PSA (SEIKAGAKU BIOBUSINESS CORPORATION—J-OIL MILLS, Inc.).

[2] = inhibitor: Bovine blood serum albumin
[3] = inhibitor: Human immune globulin A
[4] = inhibitor: Human immune globulin G
[5] = inhibitor: α1-acidic glycoprotein

Substance	association constant Ka ([1]; Sugar chain No. 015) [M⁻¹]	association constant Ka ([1]; Sugar chain No. 201) [M⁻¹]	association constant Ka ([1]; Sugar chain No. 202) [M⁻¹]	association constant Ka ([1]; Sugar chain No. 203) [M⁻¹]	association constant Ka ([1]; Sugar chain No. 401) [M⁻¹]	association constant Ka ([1]; Sugar chain No. 402) [M⁻¹]	association constant Ka ([1]; Sugar chain No. 403) [M⁻¹]	association constant Ka ([1]; Sugar chain No. 404) [M⁻¹]	association constant Ka ([1]; Sugar chain No. 405) [M⁻¹]	association constant Ka ([1]; Sugar chain No. 406) [M⁻¹]	association constant Ka ([1]; Sugar chain No. 407) [M⁻¹]	association constant Ka ([1]; Sugar chain No. 410) [M⁻¹]	association constant Ka ([1]; Sugar chain No. 413) [M⁻¹]	association constant Ka ([1]; Sugar chain No. 418) [M⁻¹]	association constant Ka ([1]; Sugar chain No. 601) [M⁻¹]	association constant Ka ([1]; Sugar chain No. 602) [M⁻¹]	minimum inhibition concentration of hemagglutination (glycoproteins; inhibitor: Asialofetuin) [μl/ml]	minimum inhibition concentration of hemagglutination (glycoproteins; inhibitor: Asialomucin (pig)) [μl/ml]	minimum inhibition concentration of hemagglutination (glycoproteins; [2]) [μl/ml]	minimum inhibition concentration of hemagglutination (glycoproteins; inhibitor: Casein) [μl/ml]	further results
Stropharia rugosoannulata lectin [SRL, novel L-fucose α1→6 specific lectin purified from the mushroom Stropharia rugosoannulata]	49000	64000	61000	52000	57000	44000	56000	58000	54000	38000	10000	39000	10000	4300	10000	32000	>250	>250	>250	>250	minimum inhibition concentration of hemagglutination (glycoproteins; inhibitor: Fetuin): >250 μl/ml; minimum inhibition concentration of hemagglutination (glycoproteins; [3]): >250 μl/ml; minimum inhibition concentration of hemagglutination (glycoproteins; [4]): >250 μl/ml; minimum inhibition concentration of hemagglutination (glycoproteins; inhibitor: Lactoferrin): >250 μl/ml; minimum inhibition concentration of hemagglutination (glycoproteins; inhibitor: Mucin (bovine)): >250 μl/ml; minimum inhibition concentration of hemagglutination (glycoproteins; inhibitor: Mucin (pig)): >250 μl/ml; minimum inhibition concentration of hemagglutination (glycoproteins; inhibitor: Ribonuclease): >250 μl/ml; minimum inhibition concentration of hemagglutination (glycoproteins; inhibitor: Thyroglobulin): 250 μl/ml; minimum inhibition concentration of hemagglutination (glycoproteins; inhibitor: Transferrin): >250 μl/ml; minimum inhibition concentration of hemagglutination (glycoproteins; [5]): >250 μl/ml
Pholiota terrestris lectin [PTL, novel L-fucose α1→6 specific lectin purified from the mushroom Pholiota terrestris]	500000	460000	400000	330000	350000	200000	340000	390000	320000	220000	280000	220000	280000	220000	240000	120000	>250	>250	>250	>250	association constant Ka to L-fucose α1→6 sugar chains ([1]; FAC): ≥ 100000 M⁻¹; minimum inhibition concentration of hemagglutination (glycoproteins; inhibitor: Fetuin): >250 μl/ml; minimum inhibition concentration of hemagglutination (glycoproteins; [3]): >250 μl/ml; minimum inhibition concentration of hemagglutination (glycoproteins; [4]): >250 μl/ml; minimum inhibition concentration of hemagglutination (glycoproteins; inhibitor: Lactoferrin): >250 μl/ml; minimum inhibition concentration of hemagglutination (glycoproteins; inhibitor: Mucin (bovine)): >250 μl/ml; minimum inhibition concentration of hemagglutination (glycoproteins; inhibitor: Mucin (pig)): >250 μl/ml; minimum inhibition concentration of hemagglutination (glycoproteins; inhibitor: Ribonuclease): >250 μl/ml; minimum inhibition concentration of hemagglutination (glycoproteins; inhibitor: Thyroglobulin): 250 μl/ml; minimum inhibition concentration of hemagglutination (glycoproteins; inhibitor: Transferrin): >250 μl/ml; minimum inhibition concentration of hemagglutination (glycoproteins; [5]): >250 μl/ml
Aspergillus oryzae lectin [AOL, reference compound]	130000	120000	120000	130000	140000	160000	130000	150000	130000	110000	110000	100000	79000	63000	140000	140000	>250	62.5	>250	>250	minimum inhibition concentration of hemagglutination (glycoproteins; inhibitor: Fetuin): >250 μl/ml; minimum inhibition concentration of hemagglutination (glycoproteins; [3]): >250 μl/ml; minimum inhibition concentration of hemagglutination (glycoproteins; [4]): >250 μl/ml; minimum inhibition concentration of hemagglutination (glycoproteins; inhibitor: Lactoferrin): >250 μl/ml; minimum inhibition concentration of hemagglutination (glycoproteins; inhibitor: Mucin (bovine)): >250 μl/ml; minimum inhibition concentration of hemagglutination (glycoproteins; inhibitor: Mucin (pig)): 62.5 μl/ml; minimum inhibition concentration of hemagglutination (glycoproteins; inhibitor: Ribonuclease): >250 μl/ml; minimum inhibition concentration of hemagglutination (glycoproteins; inhibitor: Thyroglobulin): >250 μl/ml; minimum inhibition concentration of hemagglutination (glycoproteins; inhibitor: Transferrin): >250 μl/ml; minimum inhibition concentration of hemagglutination (glycoproteins; [5]): >250 μl/ml
